Experimental findings from ChEMBL document CHEMBL4507263, “Data for DCP probe BAY-474” (2021) are described below.

The target in assay [1] is 5-hydroxytryptamine receptor 6 (Homo sapiens, UniProt P50406). The assay is described as follows: GPCRScan assay: inhibition of 5-HT6. On the set-up: radioligand conc. used [nm] 2.0 – 4.0, parental cells stable HEK.
The next assay has as its target D(1B) dopamine receptor (Homo sapiens, UniProt P21918). The assay is described as follows: GPCRScan assay: inhibition of D5. On the set-up: radioligand conc. used [nm] 2.0 – 3.0, parental cells HEKT.
The test system of assay [2] is Tyrosine-protein kinase ABL1 (Homo sapiens), P00519 [H396P]. Particulars: Compound concentration 1000.0 nM.
In assay [3] the test system is ALK tyrosine kinase receptor (Homo sapiens), Q9UM73 [L1196M]. The note with it: Compound concentration 1000.0 nM.
In assay [4] the target is Aurora kinase B (Homo sapiens) (UniProt Q96GD4). The note with it: Compound concentration 1000.0 nM.
Sequence of Aurora kinase B (Homo sapiens) (Q96GD4 whole entry): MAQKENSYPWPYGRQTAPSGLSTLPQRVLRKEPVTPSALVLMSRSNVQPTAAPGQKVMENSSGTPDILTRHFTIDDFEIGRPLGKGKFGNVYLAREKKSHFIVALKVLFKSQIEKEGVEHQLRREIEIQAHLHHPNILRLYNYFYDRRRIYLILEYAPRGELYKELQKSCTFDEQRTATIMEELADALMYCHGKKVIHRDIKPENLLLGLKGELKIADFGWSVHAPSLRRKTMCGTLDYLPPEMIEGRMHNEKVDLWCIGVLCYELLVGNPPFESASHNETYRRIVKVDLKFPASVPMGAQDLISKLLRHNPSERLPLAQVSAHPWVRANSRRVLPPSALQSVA
In assay [5] the target is Calcium/calmodulin-dependent protein kinase type 1B (Homo sapiens) (UniProt Q6P2M8). The note with it: Compound concentration 1000.0 nM.
Assay [6] deals with Cyclin-dependent kinase 5 (Homo sapiens) (UniProt Q00535). Particulars: Compound concentration 1000.0 nM.
Assay [7] addresses Cyclin-dependent kinase 9 (Homo sapiens) (UniProt P50750). Particulars: Compound concentration 1000.0 nM.
The target in assay [8] is Cyclin-dependent kinase-like 3 (Homo sapiens) (UniProt Q8IVW4). The note with it: Compound concentration 1000.0 nM.
The target of assay [9] is Serine/threonine-protein kinase 17B (Homo sapiens) (UniProt O94768). Particulars: Compound concentration 1000.0 nM.
In assay [10] the test system is Epidermal growth factor receptor (Homo sapiens), P00533 [UNDEFINED MUTATION]. The note with it: Compound concentration 1000.0 nM.
Assay [11] concerns Epidermal growth factor receptor (Homo sapiens), P00533 [G719C]. The note with it: Compound concentration 1000.0 nM.
The test system of assay [12] is Mast/stem cell growth factor receptor Kit (Homo sapiens), P10721 [V559D,V654A]. Particulars: Compound concentration 1000.0 nM.
The target in assay [13] is Serine/threonine-protein kinase LATS1 (Homo sapiens) (UniProt O95835). The note with it: Compound concentration 1000.0 nM.
Sequence of Serine/threonine-protein kinase LATS1 (Homo sapiens) (O95835 whole entry): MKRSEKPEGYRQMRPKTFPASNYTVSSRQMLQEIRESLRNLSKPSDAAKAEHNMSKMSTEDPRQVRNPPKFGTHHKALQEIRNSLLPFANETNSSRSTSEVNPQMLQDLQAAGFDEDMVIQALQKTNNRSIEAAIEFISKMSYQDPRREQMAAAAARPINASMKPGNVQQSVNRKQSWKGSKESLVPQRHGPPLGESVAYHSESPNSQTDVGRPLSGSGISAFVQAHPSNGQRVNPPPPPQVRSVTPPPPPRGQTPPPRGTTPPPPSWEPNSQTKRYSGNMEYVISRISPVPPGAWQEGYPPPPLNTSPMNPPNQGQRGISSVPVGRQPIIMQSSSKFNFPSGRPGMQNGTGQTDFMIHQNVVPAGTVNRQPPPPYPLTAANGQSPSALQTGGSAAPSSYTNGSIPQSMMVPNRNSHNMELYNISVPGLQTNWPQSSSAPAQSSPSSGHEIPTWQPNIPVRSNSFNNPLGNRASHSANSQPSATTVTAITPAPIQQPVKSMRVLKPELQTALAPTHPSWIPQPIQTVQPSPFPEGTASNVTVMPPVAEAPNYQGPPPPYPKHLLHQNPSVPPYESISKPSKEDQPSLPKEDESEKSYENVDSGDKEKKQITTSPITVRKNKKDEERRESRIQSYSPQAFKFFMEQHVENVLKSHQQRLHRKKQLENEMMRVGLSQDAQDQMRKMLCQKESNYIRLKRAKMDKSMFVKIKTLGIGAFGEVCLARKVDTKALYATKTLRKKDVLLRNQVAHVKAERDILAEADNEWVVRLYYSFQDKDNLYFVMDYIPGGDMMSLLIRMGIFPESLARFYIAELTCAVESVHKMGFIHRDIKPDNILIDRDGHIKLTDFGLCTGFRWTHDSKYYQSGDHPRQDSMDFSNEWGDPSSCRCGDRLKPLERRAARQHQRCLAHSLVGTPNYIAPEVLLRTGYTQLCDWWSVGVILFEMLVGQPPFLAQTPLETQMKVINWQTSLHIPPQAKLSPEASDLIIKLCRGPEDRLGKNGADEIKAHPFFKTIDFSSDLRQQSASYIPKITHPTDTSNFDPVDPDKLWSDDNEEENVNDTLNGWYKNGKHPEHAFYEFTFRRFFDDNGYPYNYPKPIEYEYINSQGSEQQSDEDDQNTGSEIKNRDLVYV
The target in assay [14] is Serine/threonine-protein kinase LATS2 (Homo sapiens) (UniProt Q9NRM7). Particulars: Compound concentration 1000.0 nM.
Assay [15] concerns the target Serine/threonine-protein kinase MARK2 (Homo sapiens) (UniProt Q7KZI7). Particulars: Compound concentration 1000.0 nM.
Assay [16] deals with Dual specificity mitogen-activated protein kinase kinase 3 (Homo sapiens) (UniProt P46734). The note with it: Compound concentration 1000.0 nM.
The target in assay [17] is Myosin light chain kinase 2, skeletal/cardiac muscle (Homo sapiens) (UniProt Q9H1R3). The note with it: Compound concentration 1000.0 nM.
The target of assay [18] is Serine/threonine-protein kinase Nek7 (Homo sapiens) (UniProt Q8TDX7). The note with it: Compound concentration 1000.0 nM.
In assay [19] the target is Serine/threonine-protein kinase PAK 5 (Homo sapiens) (UniProt Q9P286). The note with it: Compound concentration 1000.0 nM.
The target in assay [20] is Cyclin-dependent kinase 2 homolog (Plasmodium falciparum (isolate 3D7)) (UniProt P61075). The note with it: Compound concentration 1000.0 nM.
The subject of assay [21] is Phosphatidylinositol 4,5-bisphosphate 3-kinase catalytic subunit alpha isoform (Homo sapiens), P42336 [E542K]. The note with it: Compound concentration 1000.0 nM.
For assay [22], the target named is Phosphatidylinositol 4-phosphate 5-kinase type-1 alpha (Homo sapiens) (UniProt Q99755). Particulars: Compound concentration 1000.0 nM.
Sequence of Phosphatidylinositol 4-phosphate 5-kinase type-1 alpha (Homo sapiens) (Q99755 whole entry): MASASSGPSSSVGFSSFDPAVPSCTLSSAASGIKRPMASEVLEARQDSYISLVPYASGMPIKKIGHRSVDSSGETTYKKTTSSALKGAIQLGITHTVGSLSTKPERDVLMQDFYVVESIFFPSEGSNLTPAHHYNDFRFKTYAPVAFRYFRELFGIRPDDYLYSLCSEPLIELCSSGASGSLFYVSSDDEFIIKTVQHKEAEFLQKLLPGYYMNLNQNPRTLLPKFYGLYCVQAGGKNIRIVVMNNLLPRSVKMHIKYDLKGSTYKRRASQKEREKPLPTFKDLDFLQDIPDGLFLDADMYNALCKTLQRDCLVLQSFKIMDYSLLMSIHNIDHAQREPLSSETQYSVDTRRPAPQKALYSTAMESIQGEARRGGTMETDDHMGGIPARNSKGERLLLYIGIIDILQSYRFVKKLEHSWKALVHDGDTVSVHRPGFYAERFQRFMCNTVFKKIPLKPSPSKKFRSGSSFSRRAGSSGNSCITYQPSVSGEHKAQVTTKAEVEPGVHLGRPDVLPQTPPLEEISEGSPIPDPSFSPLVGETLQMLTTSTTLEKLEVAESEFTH
Assay [23] addresses Dual serine/threonine and tyrosine protein kinase (Homo sapiens) (UniProt Q6XUX3). The note with it: Compound concentration 1000.0 nM.
Assay [24] concerns the target Ribosomal protein S6 kinase alpha-2 (Homo sapiens) (UniProt Q15349). The note with it: Compound concentration 1000.0 nM.
In assay [25] the target is Ribosomal protein S6 kinase beta-1 (Homo sapiens) (UniProt P23443). The note with it: Compound concentration 1000.0 nM.
Assay [26] has as its target Serine/threonine-protein kinase 32A (Homo sapiens) (UniProt Q8WU08). Particulars: Compound concentration 1000.0 nM.
Assay [27] concerns the target GABA-A receptor; anion channel (Rattus norvegicus) (UniProt O09028+P15431+P18506+P18508+P19969+P20236+P23574+P23576+P28471+P28473+P30191+P62813+P63079+P63138+Q91ZM7+Q9ES14). The note with it: Compound concentration 10.0 uM.
For assay [28], the target named is Death-associated protein kinase 2 (Homo sapiens) (UniProt Q9UIK4). The assay is described as follows: DAPK2 (h) Millipore kinase activity assay. Particulars: Compound concentration 1.0 uM.
Assay [29] concerns the target Ephrin type-A receptor 4 (Homo sapiens) (UniProt P54764). In words: EphA4 (h) Millipore kinase activity assay. Particulars: Compound concentration 1.0 uM.
Assay [30] deals with Tyrosine-protein kinase Fer (Homo sapiens) (UniProt P16591). The assay is described as follows: Fer (h) Millipore kinase activity assay. Particulars: Compound concentration 1.0 uM.
Assay [31] deals with Ribosomal protein S6 kinase alpha-4 (Homo sapiens) (UniProt O75676). In words: MSK2 (h) Millipore kinase activity assay. Particulars: Compound concentration 1.0 uM.
Sequence of Ribosomal protein S6 kinase alpha-4 (Homo sapiens) (O75676 whole entry, looked up): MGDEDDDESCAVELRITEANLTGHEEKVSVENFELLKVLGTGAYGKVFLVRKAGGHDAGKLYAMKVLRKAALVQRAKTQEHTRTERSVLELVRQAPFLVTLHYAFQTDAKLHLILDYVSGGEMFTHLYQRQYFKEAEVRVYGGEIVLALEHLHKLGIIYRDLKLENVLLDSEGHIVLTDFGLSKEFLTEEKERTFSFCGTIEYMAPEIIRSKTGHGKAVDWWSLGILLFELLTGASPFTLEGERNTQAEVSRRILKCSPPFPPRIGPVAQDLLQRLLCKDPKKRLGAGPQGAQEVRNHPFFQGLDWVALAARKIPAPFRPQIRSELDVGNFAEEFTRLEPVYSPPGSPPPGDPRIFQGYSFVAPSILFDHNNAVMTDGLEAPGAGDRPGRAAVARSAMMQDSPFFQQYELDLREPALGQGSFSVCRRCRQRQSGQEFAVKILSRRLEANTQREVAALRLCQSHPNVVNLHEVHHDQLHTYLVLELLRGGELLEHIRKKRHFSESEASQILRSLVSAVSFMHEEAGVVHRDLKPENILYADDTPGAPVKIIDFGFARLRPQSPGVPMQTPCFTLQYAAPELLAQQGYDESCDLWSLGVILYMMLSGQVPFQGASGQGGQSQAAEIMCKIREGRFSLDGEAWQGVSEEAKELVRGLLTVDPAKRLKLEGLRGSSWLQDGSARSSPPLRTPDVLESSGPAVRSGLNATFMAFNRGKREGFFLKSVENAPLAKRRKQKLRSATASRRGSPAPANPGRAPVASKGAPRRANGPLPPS
In assay [32] the target is RAC-gamma serine/threonine-protein kinase (Homo sapiens) (UniProt Q9Y243). The assay is described as follows: PKBgamma (h) Millipore kinase activity assay. Particulars: Compound concentration 1.0 uM.
For assay [33], the target named is Protein kinase C delta type (Homo sapiens) (UniProt Q05655). The assay is described as follows: PKCdelta (h) Millipore kinase activity assay. Particulars: Compound concentration 1.0 uM.
Assay [34] has as its target Macrophage-stimulating protein receptor (Homo sapiens) (UniProt Q04912). In words: Ron (h) Millipore kinase activity assay. Particulars: Compound concentration 1.0 uM.
Assay [35] deals with Proto-oncogene tyrosine-protein kinase ROS (Homo sapiens) (UniProt P08922). In words: Ros (h) Millipore kinase activity assay. The note with it: Compound concentration 1.0 uM.
In assay [36] the target is Ribosomal protein S6 kinase alpha-2 (Homo sapiens) (UniProt Q15349). The assay is described as follows: Rsk3 (h) Millipore kinase activity assay. Particulars: Compound concentration 1.0 uM.
Sequence of Ribosomal protein S6 kinase alpha-2 (Homo sapiens) (Q15349 whole entry): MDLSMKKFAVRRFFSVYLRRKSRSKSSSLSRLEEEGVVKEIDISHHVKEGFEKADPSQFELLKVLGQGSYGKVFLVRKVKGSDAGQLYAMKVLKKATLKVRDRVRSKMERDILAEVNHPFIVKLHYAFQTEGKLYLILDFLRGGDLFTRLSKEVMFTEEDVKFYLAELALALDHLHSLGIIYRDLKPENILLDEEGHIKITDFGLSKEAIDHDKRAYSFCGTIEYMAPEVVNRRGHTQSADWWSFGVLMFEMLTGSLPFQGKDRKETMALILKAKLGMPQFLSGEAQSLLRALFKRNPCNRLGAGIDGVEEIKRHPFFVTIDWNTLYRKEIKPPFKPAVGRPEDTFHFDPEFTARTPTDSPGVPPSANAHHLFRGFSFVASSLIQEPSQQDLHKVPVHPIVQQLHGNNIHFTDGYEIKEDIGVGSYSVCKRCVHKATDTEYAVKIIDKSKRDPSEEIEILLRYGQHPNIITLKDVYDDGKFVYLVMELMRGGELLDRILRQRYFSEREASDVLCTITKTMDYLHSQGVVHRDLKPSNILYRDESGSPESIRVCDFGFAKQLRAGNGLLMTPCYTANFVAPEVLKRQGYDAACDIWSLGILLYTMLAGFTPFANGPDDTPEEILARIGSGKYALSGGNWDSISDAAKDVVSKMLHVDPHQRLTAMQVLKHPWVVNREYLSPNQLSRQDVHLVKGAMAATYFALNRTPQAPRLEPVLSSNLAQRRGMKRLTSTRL
For assay [37], the target named is Acetylcholine receptor subunit alpha (Homo sapiens) (UniProt P02708). In words: Inhibition of Nicotinic Acetylcholine D1, Bungarotoxin at 10 µM in the Eurofins-Panlabs radioligand binding assay (Eurofins_assay_258700). Particulars: Compound concentration 10.0 uM.
In assay [38] the target is Sodium-dependent serotonin transporter (Homo sapiens) (UniProt P31645). The note with it: Compound concentration 10.0 uM.
The target of assay [39] is Kappa-type opioid receptor (Homo sapiens) (UniProt P41145). Particulars: Compound concentration 10.0 uM.
Assay [40] addresses Histamine H3 receptor (Homo sapiens) (UniProt Q9Y5N1). The note with it: Compound concentration 10.0 uM.
Assay [41] concerns the target Dual specificity tyrosine-phosphorylation-regulated kinase 2 (Homo sapiens) (UniProt Q92630). In words: DYRK2 (h) Millipore kinase activity assay. Particulars: Compound concentration 1.0 uM.

Sequence of Dual specificity tyrosine-phosphorylation-regulated kinase 2 (Homo sapiens) (Q92630 whole entry, looked up): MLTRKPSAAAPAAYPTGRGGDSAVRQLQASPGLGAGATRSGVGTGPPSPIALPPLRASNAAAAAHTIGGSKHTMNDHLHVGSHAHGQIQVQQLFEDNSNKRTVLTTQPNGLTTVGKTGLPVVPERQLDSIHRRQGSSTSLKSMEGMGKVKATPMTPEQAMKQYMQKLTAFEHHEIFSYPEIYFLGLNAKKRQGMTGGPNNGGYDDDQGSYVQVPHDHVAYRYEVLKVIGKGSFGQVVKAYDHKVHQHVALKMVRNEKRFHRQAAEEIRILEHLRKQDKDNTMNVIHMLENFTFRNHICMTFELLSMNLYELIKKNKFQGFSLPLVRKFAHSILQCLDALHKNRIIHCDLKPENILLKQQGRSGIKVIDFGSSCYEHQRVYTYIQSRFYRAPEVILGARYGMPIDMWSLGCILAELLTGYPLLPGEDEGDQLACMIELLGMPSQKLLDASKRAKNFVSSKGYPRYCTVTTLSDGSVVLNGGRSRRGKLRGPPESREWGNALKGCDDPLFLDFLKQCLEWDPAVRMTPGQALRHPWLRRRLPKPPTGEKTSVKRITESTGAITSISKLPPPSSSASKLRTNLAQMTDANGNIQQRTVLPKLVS
Sequence of Dual serine/threonine and tyrosine protein kinase (Homo sapiens) (Q6XUX3 whole entry): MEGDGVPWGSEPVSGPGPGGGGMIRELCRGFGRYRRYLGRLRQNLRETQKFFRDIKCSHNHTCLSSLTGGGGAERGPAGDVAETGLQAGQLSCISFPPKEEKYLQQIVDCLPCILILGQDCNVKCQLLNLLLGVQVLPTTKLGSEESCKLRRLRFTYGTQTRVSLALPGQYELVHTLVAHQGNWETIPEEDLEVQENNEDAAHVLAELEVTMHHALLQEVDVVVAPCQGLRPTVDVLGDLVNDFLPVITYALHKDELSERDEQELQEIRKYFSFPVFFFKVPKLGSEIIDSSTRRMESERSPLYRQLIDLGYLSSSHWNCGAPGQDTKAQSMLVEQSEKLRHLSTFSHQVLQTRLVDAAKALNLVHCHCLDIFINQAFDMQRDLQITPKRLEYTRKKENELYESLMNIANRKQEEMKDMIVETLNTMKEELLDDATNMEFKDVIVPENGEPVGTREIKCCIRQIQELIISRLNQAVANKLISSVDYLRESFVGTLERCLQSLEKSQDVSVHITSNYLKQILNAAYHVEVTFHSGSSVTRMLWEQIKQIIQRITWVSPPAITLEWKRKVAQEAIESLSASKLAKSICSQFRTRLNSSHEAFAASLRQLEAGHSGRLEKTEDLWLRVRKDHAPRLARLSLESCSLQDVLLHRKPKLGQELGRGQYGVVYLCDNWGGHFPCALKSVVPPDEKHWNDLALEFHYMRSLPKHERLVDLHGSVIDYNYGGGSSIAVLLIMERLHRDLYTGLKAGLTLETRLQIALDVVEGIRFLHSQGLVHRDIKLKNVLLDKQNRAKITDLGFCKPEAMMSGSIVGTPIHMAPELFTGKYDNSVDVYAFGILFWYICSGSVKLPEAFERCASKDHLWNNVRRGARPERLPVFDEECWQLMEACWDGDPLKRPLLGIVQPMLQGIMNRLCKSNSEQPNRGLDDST

In the case of `CC1=C(C#N)[C@@H](c2ccc3[nH]nc(C)c3c2)C(C#N)=C(c2ccc(Cl)cc2)N1` [BAY-827], the Ki in [1] is 674 nM; at D(1B) dopamine receptor, 10 µM. For the same compound, the residual activity in [2] was 79.9%; in [3], 100%; in [4], 82.9%; in assay [5], 98.5%; in assay [6], 100%; in assay [7] it was 96.9%. The residual activity in [8] was 100%; in assay [9] it was 100%; in assay [10] it was 75.1%; in assay [11], 100%; in assay [12] it was 100%; in assay [13] it was 100%. For the same compound, the residual activity in [14] was 100%; in [15], 100%; in [16], 53.5%; in assay [17] it was 91.4%; in assay [18], 87.4%; in assay [19], 100%. Moreover, the residual activity in assay [20] is 92.5%; in assay [21], 78.6%; in assay [22] it was 100%; in assay [23], 100%; in [24] it was 85.4%; in assay [25], 62.2%. Besides, the residual activity in [26] is 100%. In addition, the inhibition in assay [27] was 16.9%.

Take `CC1=C(C#N)C(c2ccc3[nH]nc(C)c3c2)C(C#N)=C(C)N1` [BAY-474]: the inhibition was -4% in [28]; -5% in assay [29]; 22% in assay [30]; -1% in assay [31]; -4% in [32]; 2% in assay [33]. Moreover, the inhibition in [34] was 8%; in assay [35], 25%; in assay [36], 51%; in [37] it was 0%; in assay [38], -3.41%; in assay [39], 8.26%. Further, the inhibition in assay [40] was -3.35%; in assay [41], -8%.
